Measurements: publication PMC7587962, “Evaluation of Cytotoxicity and α-Glucosidase Inhibitory Activity of Amide and Polyamino-Derivatives of Lupane Triterpenoids” (Molecules, 2020)
Like-named read-outs stand apart in the source and are kept apart here.

How the values were obtained:
HL-60(TB) = assay: NCI-60 SRB screen: leukemia HL-60(TB); type: cell-based; conditions: Homo sapiens, 48 h; HL-60(TB); single dose 10 µM; read-out: Percentage Cell Growth
[1] = system: 60 human tumor cell lines; assay: cells
MDA-MB-231/ATCC = assay: NCI-60 SRB screen: breast cancer MDA-MB-231/ATCC; type: cell-based; conditions: Homo sapiens, 48 h; MDA-MB-231/ATCC; single dose 10 µM; read-out: Percentage Cell Growth
HT29 = assay: NCI-60 SRB screen: colon cancer HT29; type: cell-based; conditions: Homo sapiens, HT-29, 48 h; HT29; single dose 10 µM; read-out: Percentage Cell Growth
[2] = system: Rat Liver ER Neutral α-Glucosidase; assay: Endoplasmic reticulum α-glucosidase activity assay; type: biochemical
From the text: Betulinic acid inhibits yeast α-glucosidase activity and interferes with N-linked glycan modifications to cell-surface intercellular adhesion molecule-1 (ICAM-1) in human lung carcinoma A549 cells in a similar manner to castanospermine, an inhibitor of endoplasmic reticulum α-glucosidases I and II [66]. […] Taken together, these considerations prompted us to evaluate a series of lupanes with amide function or polyamine chain 11, 12, 16, 18, and 22–26 for α-glucosidase inhibition. Initially, they were screened against α-glucosidase of S. cerevisiae as an accessible and high-throughput model. Confirmatory experiments were performed on isolated rough endoplasmic reticulum vesicles from rat liver, which contain neutral α-glucosidases I and II in a membrane-bound form.
Endoplasmic reticulum was isolated from hepatocytes of decapitated male Sprague-Dawley rats, which were starved overnight and sacrificed the next morning. All experiments were approved by Volgograd regional ethic committee. The whole procedure was performed at 4 °C. In brief, a fresh tissue sample from an animal was washed twice with 10 mL of PBS to remove residual blood. The tissue was placed on a paper towel in order to absorb excess liquid and blood clots, if present. It was cut further into small pieces (1.5–2 cm) and washed once more. […] Homogenate was centrifuged at 1000× g for 10 min at 4 °C. After removal of the floating lipid layer by aspiration, supernatant was separated and centrifuged at 12,000× g for 15 min. at 4 °C. The supernatant fraction, which is the post mitochondrial fraction (PMF), was used for isolation of rough endoplasmic reticulum (RER) enriched microsomes by precipitation with 8 mM CaCl2 added dropwise. The final concentration of CaCl2 was 7 mM. Resulting sample was centrifuged at 8000 g for 10 min. at 4 °C. The supernatant was discarded, and the pellet was suspended in isotonic extraction buffer (0.3 mL of buffer for each g of original tissue). The suspension was homogenized completely to afford RER enriched microsomes. In a 96-well flat transparent plate 25 µL of the isolated RER microsomes were incubated with 50 µL of test compounds in 67 mM PBS (pH 6.8) at 37 °C for 10 min. Then, p-nitrophenyl-α-D-glucopyranoside (Sigma #N1377, St. Louis, MO, USA) was added to 1 mM final concentration and increase in absorbance was recorded for 42 min at 405 nm wavelength with Infinite M200 PRO microplate reader (Tecan, Austria). Concentration of RER microsomes was adjusted to achieve an increase in optical density of ~0.2 in control samples after 30 min. of incubation. Test compounds were prepared as described above for the yeast α-glucosidase assay.

Structure (SMILES)	activity at 10 µM ([1]; read-out: Mean Growth, %) [%]	activity at 10 µM ([1]; read-out: Range of Growth, %) [%]	also measured
C=C(C)[C@@H]1CC[C@]2(C(N)=O)CC[C@]3(C)[C@H](CC[C@@H]4[C@@]5(C)CCC(=O)C(C)(C)[C@@H]5CC[C@]43C)[C@@H]12 [Compound 9]	72	25.9 to 115	activity at 10 µM (HL-60(TB)): 25.9%
C=C(C)[C@@H]1CC[C@]2(C(=O)NCCCCCCN(CCCN)CCCN)CC[C@]3(C)[C@H](CC[C@@H]4[C@@]5(C)CCC(=O)C(C)(C)[C@@H]5CC[C@]43C)[C@@H]12 [Compound 13]	105	85.8 to 118	
C=C(C)[C@@H]1CC[C@]2(C(=O)NCCNCCN)CC[C@]3(C)[C@H](CC[C@@H]4[C@@]5(C)CC[C@H](O)C(C)(C)[C@@H]5CC[C@]43C)[C@@H]12 [Compound 7]	99.2	53.8 to 147	
C=C(C)[C@@H]1CC[C@]2(C(=O)NCCCCCCN(CCCN)CCCN)CC[C@]3(C)[C@H](CC[C@@H]4[C@@]5(C)CC[C@H](O)C(C)(C)[C@@H]5CC[C@]43C)[C@@H]12 [Compound 8]	80.5	20.4 to 135	activity at 10 µM (MDA-MB-231/ATCC): 20.4%; activity at 10 µM (HT29): 24.3%
C=C(C)[C@@H]1CC[C@]2(C(=O)NN(CCN(CCNC(=O)OC(C)(C)C)C(=O)OC(C)(C)C)C(=O)OC(C)(C)C)CC[C@]3(C)[C@H](CC[C@@H]4[C@@]5(C)CCC(=O)C(C)(C)[C@@H]5CC[C@]43C)[C@@H]12 [Compound 15]	90.1	56.8 to 114	
C=C(C)[C@@H]1CC[C@]2(C(=O)N3CCNCC3)CC[C@]3(C)[C@H](CC[C@@H]4[C@@]5(C)CCC(=O)C(C)(C)[C@@H]5CC[C@]43C)[C@@H]12 [Compound 20]	101	87.8 to 111	
C=C(C)[C@@H]1CC[C@]2(C(=O)NCCCC[C@@H](N)C(=O)OC)CC[C@]3(C)[C@H](CC[C@@H]4[C@@]5(C)CCC(=O)C(C)(C)[C@@H]5CC[C@]43C)[C@@H]12 [Compound 17]	98.7	79.2 to 111	
C[C@H]1O[C@H](O[C@H]2[C@H](O)[C@@H](O)[C@@H](O[C@H]3[C@H](O)[C@@H](O)C(O)O[C@@H]3CO)O[C@@H]2CO)[C@H](O)[C@@H](O)[C@@H]1N[C@H]1C=C(CO)[C@@H](O)[C@H](O)[C@H]1O (some centres unmarked) [Acarbose, reference compound]			Rat Liver ER Neutral α-Glucosidase Inhibition, m ± SD ([2]; 10 μM): 5.68 ± 4.68%; Rat Liver ER Neutral α-Glucosidase Inhibition, m ± SD ([2]; 100 μM): 24.09 ± 6.48%; Rat Liver ER Neutral α-Glucosidase Inhibition, m ± SD ([2]; 1 mM): 74.55 ± 3.76%
